biological target: T1, Pri1 (full-length, 1 to 420) (Homo sapiens, UniProt P49642); assay: fluorescence anisotropy direct titration; format: binding; settings: not given
T1 construct: gene PRIM1; full-length catalytic subunit alone (1-420), His6 tag cleaved by TEV protease, E. coli Rosetta2 (DE3), pRSFDuet-1
T1 sequence (P49642 1-420): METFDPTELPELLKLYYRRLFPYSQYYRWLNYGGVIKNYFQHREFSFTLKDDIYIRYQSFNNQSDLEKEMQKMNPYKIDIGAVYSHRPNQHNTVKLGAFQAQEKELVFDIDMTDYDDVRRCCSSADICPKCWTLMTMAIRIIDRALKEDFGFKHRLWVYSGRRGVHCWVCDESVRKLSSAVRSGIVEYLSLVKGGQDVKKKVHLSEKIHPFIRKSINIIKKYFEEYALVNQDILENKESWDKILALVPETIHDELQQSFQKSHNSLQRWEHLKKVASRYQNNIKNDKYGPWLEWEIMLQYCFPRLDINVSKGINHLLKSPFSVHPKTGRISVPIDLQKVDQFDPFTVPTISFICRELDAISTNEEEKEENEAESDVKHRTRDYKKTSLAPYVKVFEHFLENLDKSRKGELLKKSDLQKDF

Q: For `O=C(NCCCCCCNc1ncnc2c1ncn2[C@@H]1O[C@H](COP(=O)(O)OP(=O)(O)OP(=O)(O)O)[C@@H](O)[C@H]1O)c1ccc2c(c1)C1(OC2=O)c2ccc(O)cc2Oc2cc(O)ccc21` [6FAM-ATP], which Kd is on record?
A: The Kd was 0.41 µM.

biological target: T1, Pri1 (full-length, 1 to 420); assay: fluorescence polarization competition against 6FAM-ATP; format: binding; settings: read-out: K1/2

Q: For `Nc1nc(F)nc2c1ncn2[C@@H]1O[C@H](COP(=O)(O)OP(=O)(O)OP(=O)(O)O)[C@@H](O)[C@H]1O` [2F-ATP], which IC50 is on record?
A: Its IC50 is 7.2 µM.

Q: With `Nc1ncnc2c1ncn2[C@@H]1O[C@H](COP(=O)(O)OP(=O)(O)OP(=O)(O)O)[C@@H](O)[C@H]1O` [ATP] as the compound, how does the IC50 read?
A: Its IC50 is 7.5 µM.

Q: For `Nc1ncnc2c1ncn2[C@H]1C[C@H](O)[C@@H](COP(=O)(O)OP(=O)(O)OP(=O)(O)O)O1` [dATP], which IC50 is on record?
A: Its IC50 is 3.3 µM.

Q: Which IC50 does the source give for `Nc1nc(F)nc2c1ncn2[C@@H]1O[C@H](COP(=O)(O)OP(=O)(O)OP(=O)(O)O)[C@@H](O)[C@@H]1O` [fludarabine-TP] here?
A: Its IC50 is 1.1 µM.

Q: How did the IC50 turn out when `Nc1ncnc2c1ncn2[C@@H]1O[C@H](COP(=O)(O)OP(=O)(O)OP(=O)(O)O)[C@@H](O)[C@@H]1O` [vidarabine-TP] was run?
A: Its IC50 is 1.5 µM.

Reference: article PMC6757278, “Structural Basis for Inhibition of Human Primase by Arabinofuranosyl Nucleoside Analogues Fludarabine and Vidarabine” (ACS Chemical Biology, 2019)
